Read-outs that look alike come from different tables or passages of the source.

Assay [1] has as its target T1, hD2LR (Homo sapiens, UniProt P14416). Nature of the assay: Radioligand binding, agonist [3H]-. The settings on record: for (D3R/D2R) Ki ratio, [3H]-(R)-(+)-7-OH-DPAT: selectivity for D2R, value printed in parentheses.
Assay [2] deals with T2, hD3R (Homo sapiens, UniProt P35462). Nature of the assay: Radioligand binding, agonist [3H]-.
Assay [3] addresses T1, hD2LR.
Assay [4] concerns the target T2, hD3R.

T1 sequence (P14416 whole entry): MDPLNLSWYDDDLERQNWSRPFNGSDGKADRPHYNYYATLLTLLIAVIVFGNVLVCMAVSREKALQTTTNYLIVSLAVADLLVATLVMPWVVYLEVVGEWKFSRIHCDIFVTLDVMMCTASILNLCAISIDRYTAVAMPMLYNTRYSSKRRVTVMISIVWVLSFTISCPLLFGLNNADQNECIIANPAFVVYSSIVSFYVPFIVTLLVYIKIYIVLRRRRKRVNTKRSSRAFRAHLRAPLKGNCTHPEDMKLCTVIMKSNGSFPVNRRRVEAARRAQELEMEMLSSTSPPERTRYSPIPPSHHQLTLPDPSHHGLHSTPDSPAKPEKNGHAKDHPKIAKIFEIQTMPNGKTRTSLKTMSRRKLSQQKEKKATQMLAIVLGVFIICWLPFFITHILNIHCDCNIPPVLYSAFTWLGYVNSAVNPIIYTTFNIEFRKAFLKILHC
T2 sequence (P35462 whole entry): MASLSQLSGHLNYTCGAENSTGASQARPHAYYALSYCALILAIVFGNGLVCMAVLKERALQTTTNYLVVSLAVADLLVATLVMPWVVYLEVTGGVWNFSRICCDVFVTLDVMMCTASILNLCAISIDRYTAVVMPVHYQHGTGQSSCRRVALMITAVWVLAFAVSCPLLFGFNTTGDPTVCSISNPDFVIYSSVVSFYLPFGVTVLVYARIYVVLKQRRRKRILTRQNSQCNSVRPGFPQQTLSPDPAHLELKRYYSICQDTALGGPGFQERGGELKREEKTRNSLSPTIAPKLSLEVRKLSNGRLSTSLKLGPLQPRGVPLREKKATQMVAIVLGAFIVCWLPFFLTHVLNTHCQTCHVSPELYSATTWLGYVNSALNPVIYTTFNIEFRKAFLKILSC

One may read the Ki as the equilibrium dissociation constant of an inhibitor or competing ligand from its target. Read a low Ki as tighter binding. As to `C[C@H]1CO[C@@H](c2ccc(N)nc2)CN1CC=C1CCC(CNC(=O)c2cc3ccccc3[nH]2)C1` (mixture of isomers) [Compound 15, N-((3-(2-((2S,5S)-2-(6-Aminopyridin-3-yl)-5-methylmorpholino)ethylidene)cyclopentyl)methyl)-1H-indole-2-carboxamide], the Ki was 55.9 ± 4.78 nM in assay [1], 7.41 ± 0.323 nM in assay [2], 7920 ± 772 nM in assay [3] and 104 ± 7.65 nM in assay [4].
`CN(CC[C@@H]1CC[C@H](CNC(=O)c2cc3ccccc3[nH]2)C1)[C@@H]1Cc2cccc3[nH]c(=O)n(c23)C1` (relative stereo) [rel-cis-16a, N-((3-(2-(Methyl((R)-2-oxo-1,2,5,6-tetrahydro-4H-imidazo[4,5,1-ij]quinolin-5-yl)amino)ethyl)cyclopentyl)methyl)-1H-indole-2-carboxamide]: in assay [1], the “(D3R/D2R) Ki ratio, [3H]-(R)-(+)-7-OH-DPAT” value is reported as “(9.6)”.
For `CN(CC[C@@H]1CC[C@@H](CNC(=O)c2cc3ccccc3[nH]2)C1)[C@@H]1Cc2cccc3[nH]c(=O)n(c23)C1` (relative stereo) [rel-trans-16b, N-((3-(2-(Methyl((R)-2-oxo-1,2,5,6-tetrahydro-4H-imidazo[4,5,1-ij]quinolin-5-yl)amino)ethyl)cyclopentyl)methyl)-1H-indole-2-carboxamide], the “(D3R/D2R) Ki ratio, [3H]-(R)-(+)-7-OH-DPAT” value in assay [1] is “(17)”.
